{"source": "paper PMC9065678", "about": "“BI 1015550 is a PDE4B Inhibitor and a Clinical Drug Candidate for the Oral Treatment of Idiopathic Pulmonary Fibrosis” (Frontiers in Pharmacology, 2022)", "key": {"α-SMA protein expression": {"test_system": "α-SMA protein expression", "assay": "α-SMA protein expression of TGF-β-stimulated IPF lung fibroblasts (Western blot replacement assay)", "format": "cell-based, human", "conditions": "alone, up to the highest concentration of 100 nmol/L", "method": "(§1) Fibroblasts from donors with IPF (IPF-LF) (Asterand, Detroit, MI, United States) were grown in fibroblast basal medium (CC-3131, Lonza Walkersville, Inc., Walkersville, MD, United States) supplemented with FGM-2 SingleQuot Kit Supplements and Growth Factors (CC-4126, Lonza). Cells were grown in a humidified incubator at 37°C and 5% CO2. All assays were performed at passage 7 or 8. For assay set-up, cells were seeded in fibroblast growth medium plus supplements in assay-relevant densities. For TGF-β-stimulated assays, cells were seeded at 4,500 cells per well in 96-well plates. Proliferation assays were performed in 96-well plates at an initial seeding cell density on day 0 of 2,000 cells per well. After 24-h, the cell culture medium was changed to starvation medium (fibroblast basal medium without supplements). After a 24-h starvation period, cells were pre-incubated for 30 min with different concentrations of BI 1015550 plus/minus different concentrations of nintedanib and/or 1 nmol/L PGE2 and stimulated with the assay-relevant stimulus for the indicated time in the presence of the compound.\nFor determination of α-SMA protein expression, IPF-LF cells were stimulated with TGF-β (4 ng/mL) for 48 h. Lysates were assayed in a Western blot replacement assay (MSD). In short, lysates were pipetted onto high binding plates (MSD) and were sequentially incubated with a mouse anti-human α-SMA antibody (Sigma Aldrich) and an anti-mouse sulfo-tag antibody (MSD). For analysis, an MSD sector imager was used."}, "IPF-LF cells": {"test_system": "IPF-LF cells", "assay": "bFGF plus IL-1β-induced proliferation of IPF lung fibroblasts (bromodeoxyuridine assay)", "format": "cell-based", "conditions": "Homo sapiens, Fibroblast, read-out: Inhibition of proliferation", "method": "as §1\nIPF-LF cells were stimulated with bFGF (20 ng/mL) plus IL-1β (30 pg/mL). After 72 h of stimulation, 10-times concentrated bromodeoxyuridine was added and the cells were incubated for another 18 h (final concentration bromodeoxyuridine 10 μmol/L). Cell proliferation was assessed by bromodeoxyuridine assay (Roche, Mannheim, Germany) according to the instruction manual."}, "PDE4A": {"molecular_target": "T1, PDE4A (Homo sapiens, UniProt P27815)", "T1 construct": "PDE4A (NG_029594, AA 156–886); made in house; host or cells: SF9 insect cells (baculovirus, Bac-To-Bac, pFastbac)", "T1 sequence (P27815 156-886)": "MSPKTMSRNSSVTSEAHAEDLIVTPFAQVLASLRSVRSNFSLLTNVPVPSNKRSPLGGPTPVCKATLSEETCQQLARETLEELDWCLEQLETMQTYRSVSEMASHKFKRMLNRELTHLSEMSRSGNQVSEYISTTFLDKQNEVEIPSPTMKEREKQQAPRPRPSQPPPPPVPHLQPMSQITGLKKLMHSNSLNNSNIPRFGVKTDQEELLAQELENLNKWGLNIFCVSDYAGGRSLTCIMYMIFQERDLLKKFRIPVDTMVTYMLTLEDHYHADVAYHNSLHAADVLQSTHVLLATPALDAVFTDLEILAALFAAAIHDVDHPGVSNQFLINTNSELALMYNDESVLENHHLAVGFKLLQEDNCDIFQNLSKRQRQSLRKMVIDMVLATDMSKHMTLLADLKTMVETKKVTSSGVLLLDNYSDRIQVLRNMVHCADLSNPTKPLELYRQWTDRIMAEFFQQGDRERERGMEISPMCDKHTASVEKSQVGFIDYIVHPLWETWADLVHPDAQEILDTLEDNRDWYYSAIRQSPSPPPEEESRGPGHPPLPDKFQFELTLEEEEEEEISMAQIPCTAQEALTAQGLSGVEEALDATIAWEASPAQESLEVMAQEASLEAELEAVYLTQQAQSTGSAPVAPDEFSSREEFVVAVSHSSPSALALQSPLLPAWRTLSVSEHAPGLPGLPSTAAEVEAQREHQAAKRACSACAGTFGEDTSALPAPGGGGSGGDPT", "assay": "Recombinant PDE activity, scintillation proximity assay: PDE4A", "format": "biochemical", "conditions": "substrate [3H]cAMP, means from n independent experiments", "method": "(§2) For the preparation of human recombinant PDEs of interest, the Bac-To-Bac baculoviral expression system from Invitrogen (Carlsbad, CA, United States) was used according to the instruction manual. […] The plasmids were transformed into DH10Bac bacteria, SF9 insect cells were transfected with the bacmid DNA, and the resulting baculoviruses were stored and used for further rounds of infections. For protein production, SF9 cells were infected until a cytopathic effect was visible (after about 72 h), the SF9 cells were harvested and broken up by 3 freeze/thaw cycles, and by shearing 10 times through a 0.1 mm cannula using a syringe. […] The Phosphodiesterase Scintillation Proximity Assays (TRKQ7090 for [^3H]cAMP, GE Healthcare Europe GmbH, Chalfont St Giles, United Kingdom, and TRKQ7100 for [^3H]cGMP, Perkin Elmer, Waltham, MA, United States) were performed essentially according to the instruction manual. […] Assay solutions containing recombinant baculoviral-expressed PDE (to give an activity of 5.000–20.000 cpm corresponding to 5–20% of total activity added), 50 mmol/L Tris/HCl pH 7.5, 8.3 mmol/L MgCl2, 1.7 mmol/L EGTA, and 10 µL radiolabeled substrate (0.05 µCi in H2O) were incubated for 1 h at 30°C (final volume 100 μL)."}, "PDE4B": {"molecular_target": "T2, PDE4B (Homo sapiens, UniProt Q07343)", "T2 construct": "PDE4B NG_029038: AA 152–484; made in house; host or cells: SF9 insect cells (baculovirus, Bac-To-Bac, pFastbac)", "T2 sequence (Q07343 324-656)": "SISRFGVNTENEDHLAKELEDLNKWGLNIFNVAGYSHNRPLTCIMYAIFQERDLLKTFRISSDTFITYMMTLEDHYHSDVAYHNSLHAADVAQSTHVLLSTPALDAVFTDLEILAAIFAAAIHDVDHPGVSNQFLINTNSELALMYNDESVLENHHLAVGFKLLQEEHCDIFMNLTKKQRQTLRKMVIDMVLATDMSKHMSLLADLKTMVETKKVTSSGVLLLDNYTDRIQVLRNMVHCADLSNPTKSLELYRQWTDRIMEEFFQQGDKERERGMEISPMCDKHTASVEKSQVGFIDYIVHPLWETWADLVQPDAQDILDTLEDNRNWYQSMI", "assay": "Recombinant PDE activity, scintillation proximity assay: PDE4B", "format": "biochemical", "conditions": "human recombinant active site fragment, substrate [3H]cAMP, means from n independent experiments; read-out: IC50 PDE4B2", "method": "as §2"}, "PDE4C": {"molecular_target": "T3, PDE4C (Homo sapiens, UniProt Q08493)", "T3 construct": "made in house; host or cells: SF9 insect cells (baculovirus, Bac-To-Bac, pFastbac)", "T3 sequence (Q08493 107-712)": "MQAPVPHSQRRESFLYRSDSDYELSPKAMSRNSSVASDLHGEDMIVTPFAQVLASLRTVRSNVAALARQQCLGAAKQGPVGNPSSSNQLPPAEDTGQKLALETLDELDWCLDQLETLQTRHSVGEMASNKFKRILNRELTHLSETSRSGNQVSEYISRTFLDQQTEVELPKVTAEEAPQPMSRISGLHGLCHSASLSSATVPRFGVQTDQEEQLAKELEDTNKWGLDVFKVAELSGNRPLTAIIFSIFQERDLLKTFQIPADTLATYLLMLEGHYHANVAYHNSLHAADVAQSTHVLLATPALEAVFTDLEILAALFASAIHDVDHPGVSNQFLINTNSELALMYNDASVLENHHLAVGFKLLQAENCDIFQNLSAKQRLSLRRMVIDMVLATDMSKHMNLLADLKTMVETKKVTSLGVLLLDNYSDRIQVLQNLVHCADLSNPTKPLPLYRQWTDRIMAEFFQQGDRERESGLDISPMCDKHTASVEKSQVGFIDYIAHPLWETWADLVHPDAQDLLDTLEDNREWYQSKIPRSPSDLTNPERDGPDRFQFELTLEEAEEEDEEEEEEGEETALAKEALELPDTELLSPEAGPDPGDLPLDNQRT", "assay": "Recombinant PDE activity, scintillation proximity assay: PDE4C", "format": "biochemical", "conditions": "substrate [3H]cAMP, means from n independent experiments, read-out: IC50 PDE4C2", "method": "as §2"}, "PDE4D": {"molecular_target": "T4, PDE4D (Homo sapiens, UniProt Q08499)", "T4 construct": "PDE4D NG_027957, AA 79–438; made in house; host or cells: SF9 insect cells (baculovirus, Bac-To-Bac, pFastbac)", "T4 sequence (Q08499 381-740)": "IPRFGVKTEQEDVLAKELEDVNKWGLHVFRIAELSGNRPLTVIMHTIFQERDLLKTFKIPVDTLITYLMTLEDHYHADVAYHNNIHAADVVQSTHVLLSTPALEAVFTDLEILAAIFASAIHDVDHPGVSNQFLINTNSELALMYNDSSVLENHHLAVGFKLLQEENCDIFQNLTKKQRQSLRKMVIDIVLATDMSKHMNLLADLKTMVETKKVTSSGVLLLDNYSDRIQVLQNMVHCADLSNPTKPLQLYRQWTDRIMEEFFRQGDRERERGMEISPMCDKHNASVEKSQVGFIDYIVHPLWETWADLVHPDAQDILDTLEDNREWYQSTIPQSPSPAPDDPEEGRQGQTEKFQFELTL", "assay": "Recombinant PDE activity, scintillation proximity assay: PDE4D", "format": "biochemical", "conditions": "human recombinant active site fragment, substrate [3H]cAMP, means from n independent experiments; read-out: IC50 PDE4D2", "method": "as §2"}, "[1]": {"test_system": "LPS-induced neutrophil influx into the BALF", "assay": "LPS-induced neutrophil influx into the BALF of Suncus murinus", "format": "in vivo", "conditions": "Neutrophil, oral, 30 min before nebulized LPS, read-out: ED50 LPS-induced BALF neutrophils", "description": "(§3) Compared with other animal species used to study emesis induction by PDE4 inhibitors, like ferrets, dogs, minipigs, or monkeys, Suncus murinus allows the testing of a sufficient number of animals to provide a high statistical power. […] Male Suncus murinus (weight 50–55 g) from Boehringer Ingelheim (Biberach an der Riss, Germany) or male Wistar rats (200–250 g, Charles River), eight animals per group, were used. […] For this purpose, animals in the positive control and treatment groups were put into a circular Plexiglas chamber with 16 pie-like compartments for one animal each, and were consecutively exposed to nebulized LPS for 30 min. The LPS solution used for nebulization contained 1 mg/mL LPS in phosphate-buffered saline (PBS). Nebulization was performed with the commercially available PARI Master® nebulizer with a PARI Master® LL adapter (Pari GmbH, Starnberg, Germany). 4 h after LPS exposure, the animals were anesthetized and euthanized by cervical dislocation. After sacrifice, the trachea was cannulated and bronchoalveolar lavage was performed by instilling and re-aspirating two-times 1 mL (Suncus murinus) or 5 mL (rat) lavage buffer (PBS +2% bovine serum albumin). BALF volumes were recorded manually. Determination of neutrophil numbers in BALF was performed using a blood hemacytometer (Sysmex XT-1800i, Kobe, Japan)."}, "[2]": {"test_system": "LPS-induced lung neutrophil influx", "assay": "LPS-induced lung neutrophil influx in male Wistar rats", "format": "in vivo, rat", "conditions": "Rattus norvegicus, Neutrophil, oral, data not shown", "description": "as §3"}, "Suncus murinus": {"test_system": "Suncus murinus", "assay": "Determination of emesis in male Suncus murinus", "format": "in vivo", "method": "All animals (50–55 g) were dosed orally by gavage immediately before transfer to whole-body plethysmography boxes. The volume of application was set to 10 mL/kg body weight. For assessment of the emetic events, animals were placed in the whole-body plethysmography boxes without any access to feed or water for 3 h. The whole-body plethysmography system used to detect emetic events consisted of five major components: 1) plethysmography boxes for mice (Buxco®, PLY 3211-F, Data Sciences International, New Brighton, MN, United States), 2) a pressure transducer with an amplifier, 3) a bias flow regulator, 4) a PC-based system to receive and process the amplified signals, and 5) a PC-based data acquisition system (NOTOCORD-hem™, Instem, Stone, United Kingdom) to process signals, as well as in-house-developed software to detect and identify changes in breathing pattern. Retching and vomiting induced characteristic changes in the breathing pattern of animals and these were recorded by whole-body plethysmography and translated for NOTOCORD recording. A number of preset definitions (computer-based criteria) characteristic for emetic events were determined. Peaks that met the set internal computer-based criteria and exceeded the threshold of more than 600 mV were labeled as emetic events by the system on a standard basis."}}, "data": [{"smiles": "COC(=O)c1ccc2c(c1)NC(=O)/C2=C(\\Nc1ccc(N(C)C(=O)CN2CCN(C)CC2)cc1)c1ccccc1", "note": "[Nintedanib, nintedanib, reference compound]", "values": [{"measurement": "Inhibitory effect on α-SMA protein expression", "setting": "α-SMA protein expression", "value": "no inhibitory effect"}, {"measurement": "inhibition at 0.1 µM", "setting": "IPF-LF cells", "value": 15, "unit": "%"}]}, {"smiles": "O=C(Nc1c(Cl)c[n+]([O-])cc1Cl)c1ccc(OC(F)F)c(OCC2CC2)c1", "note": "[Roflu-N-Ox, roflumilast N-oxide, reference compound]", "values": [{"measurement": "IC50", "setting": "PDE4A", "value": 2.8, "unit": "nM"}, {"measurement": "IC50", "setting": "PDE4B", "value": 1.4, "unit": "nM"}, {"measurement": "IC50", "setting": "PDE4C", "value": 15, "unit": "nM"}, {"measurement": "IC50", "setting": "PDE4D", "value": 1.4, "unit": "nM"}]}, {"smiles": "O=C(Nc1c(Cl)cncc1Cl)c1ccc(OC(F)F)c(OCC2CC2)c1", "note": "[Roflumilast, roflumilast, reference compound]", "values": [{"measurement": "ED50", "setting": "[1]", "value": 1, "unit": "mg/kg"}, {"measurement": "ED50", "setting": "[2]", "value": 1, "unit": "mg/kg"}, {"measurement": "Animals showing emesis", "setting": "Suncus murinus; 10 × ED50 oral (BI 1015550 6 mg/kg, roflumilast 10 mg/kg)", "value": "10/24"}, {"measurement": "% of vomiting animals, emesis at 10 × ED50", "setting": "Suncus murinus; oral (BI 1015550 6 mg/kg, roflumilast 10 mg/kg), 24 animals", "value": 42, "unit": "%"}]}]}
